The NIST ThermoML archive (doi:10.1016/j.jct.2017.06.001)

Test: xn = mol fraction of the nth substance listed
Details: 100 kPa, Liquid; for speed of sound: Frequency=5 MHz, Pulse-echo method; for mass density: Vibrating tube method

OCCCCCO [1,5-pentanediol] + O
Details	mass density [kg/m3]	speed of sound [m/s]
298.15 K, x1 = 0.005	996.7	–
298.15 K, x1 = 0.0101	996.7	–
298.15 K, x1 = 0.0196	997.13	–
298.15 K, x1 = 0.0251	997.61	–
298.15 K, x1 = 0.0304	998.17	–
298.15 K, x1 = 0.05	999.75	–
298.15 K, x1 = 0.0769	1001.11	–
298.15 K, x1 = 0.1002	1002.09	–
298.15 K, x1 = 0.1282	–	1678.7
298.15 K, x1 = 0.1298	–	1679.1
298.15 K, x1 = 0.1332	–	1680
298.15 K, x1 = 0.1353	–	1680.5
298.15 K, x1 = 0.1358	–	1680.6
298.15 K, x1 = 0.1417	–	1681.8
298.15 K, x1 = 0.1438	1002.72	–
298.15 K, x1 = 0.1444	–	1682.3
298.15 K, x1 = 0.1473	–	1682.8
298.15 K, x1 = 0.1535	–	1683.7
298.15 K, x1 = 0.1536	–	1683.7
298.15 K, x1 = 0.1588	–	1684.3
298.15 K, x1 = 0.1603	–	1684.5
298.15 K, x1 = 0.1616	–	1684.6
298.15 K, x1 = 0.1649	–	1684.9
298.15 K, x1 = 0.1676	–	1685.1
298.15 K, x1 = 0.1771	–	1685.7
298.15 K, x1 = 0.1845	1002.56	–
298.15 K, x1 = 0.1944	–	1686.1
298.15 K, x1 = 0.2114	–	1686
298.15 K, x1 = 0.2309	–	1685.4
298.15 K, x1 = 0.247	–	1684.6
298.15 K, x1 = 0.2503	1001.62	–
298.15 K, x1 = 0.2649	–	1683.5
298.15 K, x1 = 0.2807	–	1682.5
298.15 K, x1 = 0.2987	–	1681.1
298.15 K, x1 = 0.3	1000.58	–
298.15 K, x1 = 0.3178	–	1679.6
298.15 K, x1 = 0.3343	999.9	–
298.15 K, x1 = 0.3356	–	1678
298.15 K, x1 = 0.3619	–	1675.6
298.15 K, x1 = 0.38	–	1673.8
298.15 K, x1 = 0.4015	–	1671.6
298.15 K, x1 = 0.4171	998.14	–
298.15 K, x1 = 0.4247	–	1669.1
298.15 K, x1 = 0.4487	–	1666.4
298.15 K, x1 = 0.454	997.25	–
298.15 K, x1 = 0.4652	–	1664.4
298.15 K, x1 = 0.4828	–	1662.2
298.15 K, x1 = 0.4985	–	1660.2
298.15 K, x1 = 0.5003	996.2	–
298.15 K, x1 = 0.5142	–	1658.1
298.15 K, x1 = 0.5304	–	1656
298.15 K, x1 = 0.5362	995.4	–
298.15 K, x1 = 0.5465	–	1653.8
298.15 K, x1 = 0.5643	–	1651.3
298.15 K, x1 = 0.5819	–	1648.8
298.15 K, x1 = 0.5991	–	1646.4
298.15 K, x1 = 0.6177	993.8	–
298.15 K, x1 = 0.6187	–	1643.6
298.15 K, x1 = 0.6363	–	1641.1
298.15 K, x1 = 0.6478	993.2	–
298.15 K, x1 = 0.6547	–	1638.5
298.15 K, x1 = 0.6726	–	1635.9
298.15 K, x1 = 0.6904	–	1633.4
298.15 K, x1 = 0.7025	992.2	–
298.15 K, x1 = 0.7097	–	1630.7
298.15 K, x1 = 0.729	–	1628
298.15 K, x1 = 0.7504	991.4	–
298.15 K, x1 = 0.7505	–	1625.1
298.15 K, x1 = 0.7712	–	1622.3
298.15 K, x1 = 0.7919	–	1619.6
298.15 K, x1 = 0.7927	990.6	–
298.15 K, x1 = 0.8118	–	1617
298.15 K, x1 = 0.8321	–	1614.5
298.15 K, x1 = 0.8523	–	1612
298.15 K, x1 = 0.8605	989.3	–
298.15 K, x1 = 0.8751	–	1609.2
298.15 K, x1 = 0.8978	–	1606.4
298.15 K, x1 = 0.9004	988.6	–
298.15 K, x1 = 0.9201	–	1603.7
298.15 K, x1 = 0.9427	–	1600.9
298.15 K, x1 = 0.9496	987.5	–
298.15 K, x1 = 0.9712	–	1597.4
298.15 K, x1 = 0.9832	–	1595.9
298.15 K, x1 = 0.993	–	1594.7
298.15 K, x1 = 1	986.5	1593.8
303.15 K, x1 = 0.0002	–	1510.1
303.15 K, x1 = 0.0005	–	1510.9
303.15 K, x1 = 0.0007	–	1511.8
303.15 K, x1 = 0.0011	–	1513
303.15 K, x1 = 0.0014	–	1514.2
303.15 K, x1 = 0.0019	–	1515.5
303.15 K, x1 = 0.0023	–	1517.1
303.15 K, x1 = 0.0028	–	1518.5
303.15 K, x1 = 0.0033	–	1520.2
303.15 K, x1 = 0.0038	–	1521.9
303.15 K, x1 = 0.0045	–	1524.1
303.15 K, x1 = 0.0052	–	1526.2
303.15 K, x1 = 0.006	–	1528.5
303.15 K, x1 = 0.0067	–	1530.9
303.15 K, x1 = 0.0076	–	1533.3
303.15 K, x1 = 0.0084	–	1535.8
303.15 K, x1 = 0.0093	–	1538.3
303.15 K, x1 = 0.0102	–	1540.9
303.15 K, x1 = 0.0111	–	1543.4
303.15 K, x1 = 0.0121	–	1546.1
303.15 K, x1 = 0.0131	–	1549
303.15 K, x1 = 0.0143	–	1552
303.15 K, x1 = 0.0152	–	1554.6
303.15 K, x1 = 0.0164	–	1557.6
303.15 K, x1 = 0.0176	–	1560.4
303.15 K, x1 = 0.0187	–	1563.2
303.15 K, x1 = 0.0198	–	1565.8
303.15 K, x1 = 0.0211	–	1568.8
303.15 K, x1 = 0.0224	–	1571.8
303.15 K, x1 = 0.0238	–	1575
303.15 K, x1 = 0.025	–	1577.6
303.15 K, x1 = 0.0263	–	1580.4
303.15 K, x1 = 0.0274	–	1582.8
303.15 K, x1 = 0.0286	–	1585.1
303.15 K, x1 = 0.0298	–	1587.5
303.15 K, x1 = 0.0311	–	1590.1
303.15 K, x1 = 0.0323	–	1592.4
303.15 K, x1 = 0.0336	–	1594.7
303.15 K, x1 = 0.035	–	1597.4
303.15 K, x1 = 0.0363	–	1599.7
303.15 K, x1 = 0.0378	–	1602.2
303.15 K, x1 = 0.0396	–	1605.2
303.15 K, x1 = 0.0417	–	1608.5
303.15 K, x1 = 0.0431	–	1610.7
303.15 K, x1 = 0.0455	–	1614.4
303.15 K, x1 = 0.0471	–	1616.7
303.15 K, x1 = 0.0489	–	1619.2
303.15 K, x1 = 0.0504	–	1621.1
303.15 K, x1 = 0.0519	–	1623.1
303.15 K, x1 = 0.0541	–	1625.9
303.15 K, x1 = 0.0565	–	1628.8
303.15 K, x1 = 0.0594	–	1632.1
303.15 K, x1 = 0.0615	–	1634.4
303.15 K, x1 = 0.0646	–	1637.6
303.15 K, x1 = 0.0673	–	1640.2
303.15 K, x1 = 0.0706	–	1643.2
303.15 K, x1 = 0.0746	–	1646.6
303.15 K, x1 = 0.0782	–	1649.5
303.15 K, x1 = 0.0815	–	1651.8
303.15 K, x1 = 0.0842	–	1653.7
303.15 K, x1 = 0.0876	–	1655.8
303.15 K, x1 = 0.0913	–	1658
303.15 K, x1 = 0.0937	–	1659.3
303.15 K, x1 = 0.0967	–	1660.8
303.15 K, x1 = 0.0996	–	1662.2
303.15 K, x1 = 0.1022	–	1663.4
303.15 K, x1 = 0.1053	–	1664.7
303.15 K, x1 = 0.1078	–	1665.7
303.15 K, x1 = 0.1089	–	1666.1
303.15 K, x1 = 0.1114	–	1667
303.15 K, x1 = 0.1126	–	1667.4
303.15 K, x1 = 0.1153	–	1668.3
